Experimental data published in US20140173774A1, “SOYBEAN TRAN[…] EFFICIENT AND HIGH-[…] PRODUCTION” (Dow AgroSciences LLC, priority 2012, published 2014).

Tests used:
[1] = tested on: un-transformed soybean explants; experiment: Glyphosate dose response study on un-transformed soybean explants in tissue culture; details: for Number of Explants at Various Stages of Selection: End of SE-2 / Number of Explants at Various Stages of Selection: SE-1 / Number of Explants at Various Stages of Selection: SE-2 / Number of Explants at Various Stages of Selection: SI-2: 49 explants at CC
Procedure: Initially, a dose response study was completed. To test the effect of glyphosate on the explants, glyphosate was added to media used from the shoot initiation stage and onwards. Glyphosate was tested from the range of 0.025-0.2 mM. Incorporation of glyphosate in tissue culture media within this concentration range has been reported in soybean (Clemente et al, 2000; Hinchee et al, 1996; Martinell et al, 2006; Martinell et al, 1999; Martinell et al, 2002), tobacco (Singer et al, 1985), cotton (Zhao et al, 2006) and wheat (Hu et al, 2003). Five concentrations of glyphosate were tested for culturing of un-transformed soybean explants. The concentrations incorporated into the SI-2 media were 0.025 mM, 0.05 mM, 0.075 mM, 0.1 mM and 0.2 mM. The un-transformed soybean explants were maintained on the same rate of glyphosate selection for all the successive stages of subculture from SI-2 media to the completion of the tissue culturing protocol. The numbers of healthy explants were counted at each subculture stage. Dead explants were discarded and healthy explants were subcultured further onto appropriate media.
Growth of the explants was also retarded on glyphosate containing media. Next, the cotyledons were removed and the explants were subcultured from SI-2 to SE media. At the end of another two weeks of selection on SE media, significant differences in the growth of the explants were observed when the explants were exposed to different levels of glyphosate. The retarded growth of the explants was proportionate to the increasing dose of glyphosate. Similarly the number of dead explants was also proportional to the increasing dose of glyphosate. The number of dead explants increased as the dose of glyphosate was increased. […] Subsequently, three different concentrations of glyphosate (e.g., 0.025 mM, 0.05 mM and 0.1 mM) were incorporated into the selection schemes for Agrobacterium-mediated transformation of the soybean split-seed explants comprising a portion of an embryonic axis.

soybean explants = experiment: Glyphosate selection of split-seed explants transformed with pDAB107553; parameters: species or system Glycine max cv. Maverick
Procedure: The novel Agrobacterium-mediated soybean split-seed comprising a portion of an embryonic axis transformation method described in Example 2 was used to transform mature soybean (Glycine max) cv. Maverick seeds with an Agrobacterium strain harboring pDAB 107553. Three different concentrations of glyphosate (e.g., 0.025 mM, 0.05 mM and 0.1 mM) were incorporated into the selection schemes for the soybean split-seed comprising a portion of an embryonic axis transformation method.
As the transformation experiment progressed through various subculture stages, the health of the soybean explants deteriorated. […] The intensity of cotyledon yellowing was more prominent in soybean explants cultured on greater rates of glyphosate (FIG. 9).
The surface of the explants was turning soft and creamy in consistency. The softening effect was very pronounced at the end of SE-1 stage onwards.

O=C(O)CNCP(=O)(O)O [glyphosate]
Number of Explants at Various Stages of Selection: End of SE-2 ([1]; 0.025 mM glyphosate): 0
Number of Explants at Various Stages of Selection: SE-1 ([1]; 0.025 mM glyphosate): 41
Number of Explants at Various Stages of Selection: SE-2 ([1]; 0.025 mM glyphosate): 38
Number of Explants at Various Stages of Selection: SI-2 ([1]; 0.025 mM glyphosate): 43
Number of Explants at Various Stages of Selection: End of SE-2 ([1]; 0.05 mM glyphosate): 0
Number of Explants at Various Stages of Selection: SE-1 ([1]; 0.05 mM glyphosate): 45
Number of Explants at Various Stages of Selection: SE-2 ([1]; 0.05 mM glyphosate): 38
Number of Explants at Various Stages of Selection: SI-2 ([1]; 0.05 mM glyphosate): 45
Number of Explants at Various Stages of Selection: End of SE-2 ([1]; 0.075 mM glyphosate): 0
Number of Explants at Various Stages of Selection: SE-1 ([1]; 0.075 mM glyphosate): 45
Number of Explants at Various Stages of Selection: SE-2 ([1]; 0.075 mM glyphosate): 21
Number of Explants at Various Stages of Selection: SI-2 ([1]; 0.075 mM glyphosate): 47
Number of Explants at Various Stages of Selection: End of SE-2 ([1]; 0.1 mM glyphosate): 0
Number of Explants at Various Stages of Selection: SE-1 ([1]; 0.1 mM glyphosate): 41
Number of Explants at Various Stages of Selection: SE-2 ([1]; 0.1 mM glyphosate): 13
Number of Explants at Various Stages of Selection: SI-2 ([1]; 0.1 mM glyphosate): 44
Number of Explants at Various Stages of Selection: End of SE-2 ([1]; 0.2 mM glyphosate): 0
Number of Explants at Various Stages of Selection: SE-1 ([1]; 0.2 mM glyphosate): 31
Number of Explants at Various Stages of Selection: SE-2 ([1]; 0.2 mM glyphosate): 1
Number of Explants at Various Stages of Selection: SI-2 ([1]; 0.2 mM glyphosate): 42
explant survival at the end of SE-2 ([1]; all levels of glyphosate tested, after six weeks on selection): all of the explants were dead
extent of yellowness of the cotyledons ([1]; end of culturing on SI-2 media, about 2 weeks): directly proportional to the dose of glyphosate
growth of the explants ([1]; glyphosate containing SI-2 media): retarded
explants survived at the end of SE-1 ([1]; highest dose, 0.2 mM): one
explant survival after 6 weeks of glyphosate selection ([1]; lowest dose tested, 0.025 mM): none of the soybean explants were able to survive
yellowing of the cotyledons (soybean explants; after first selection cycle, two weeks on SI-2 media): yellowing of the cotyledons was noted
adverse physiological effects on explants (soybean explants; highest level, 0.1 mM, of 0.025, 0.05 and 0.1 mM): greatest adverse physiological effects
softening of explant tissue (soybean explants; media containing glyphosate, pronounced from end of SE-1): softening on the surfaces of the plant tissues
